The source of these data is patent US12398132B2, “Derivatives of 4-(imidazo[1,2-a]pyridin-3-yl)-n-(pyridinyl)pyrimidin-2-amine as therapeutic agents” (AUCENTRA THERAPEUTICS PTY LTD, priority 2019, dated 2025).

Usually GI50 stands for the concentration giving 50% growth inhibition.

The structures appear in SMILES notation. Read-outs that look alike come from different tables or passages of the source.

The target of one experiment is CDK9/CyclinT1 (Homo sapiens, UniProt P50750). The experiment is described as follows: ADP Glo kinase assay, CDK9/CyclinT1. It counts as biochemical. To be noted: CDK9T1; for remaining activity at 1 µM: compound at 1 μM (values marked *), read-out: residual enzymatic activity (%) at 1 μM*. Background: ADP-Glo first removes unused ATP, then detects ADP through luciferase.
Chain of CDK9/CyclinT1 (P50750 whole entry, species assumed): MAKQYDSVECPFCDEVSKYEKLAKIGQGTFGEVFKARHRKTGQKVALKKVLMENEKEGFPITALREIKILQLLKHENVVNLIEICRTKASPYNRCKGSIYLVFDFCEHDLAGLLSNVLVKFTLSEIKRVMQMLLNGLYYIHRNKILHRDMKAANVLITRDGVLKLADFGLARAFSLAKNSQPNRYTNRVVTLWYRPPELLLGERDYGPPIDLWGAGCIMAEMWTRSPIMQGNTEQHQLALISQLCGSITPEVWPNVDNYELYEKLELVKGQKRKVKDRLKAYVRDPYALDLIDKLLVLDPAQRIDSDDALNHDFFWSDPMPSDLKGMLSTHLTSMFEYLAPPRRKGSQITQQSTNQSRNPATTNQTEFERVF
Chain of CDK9/CyclinT1 (O60563 whole entry partner, species assumed): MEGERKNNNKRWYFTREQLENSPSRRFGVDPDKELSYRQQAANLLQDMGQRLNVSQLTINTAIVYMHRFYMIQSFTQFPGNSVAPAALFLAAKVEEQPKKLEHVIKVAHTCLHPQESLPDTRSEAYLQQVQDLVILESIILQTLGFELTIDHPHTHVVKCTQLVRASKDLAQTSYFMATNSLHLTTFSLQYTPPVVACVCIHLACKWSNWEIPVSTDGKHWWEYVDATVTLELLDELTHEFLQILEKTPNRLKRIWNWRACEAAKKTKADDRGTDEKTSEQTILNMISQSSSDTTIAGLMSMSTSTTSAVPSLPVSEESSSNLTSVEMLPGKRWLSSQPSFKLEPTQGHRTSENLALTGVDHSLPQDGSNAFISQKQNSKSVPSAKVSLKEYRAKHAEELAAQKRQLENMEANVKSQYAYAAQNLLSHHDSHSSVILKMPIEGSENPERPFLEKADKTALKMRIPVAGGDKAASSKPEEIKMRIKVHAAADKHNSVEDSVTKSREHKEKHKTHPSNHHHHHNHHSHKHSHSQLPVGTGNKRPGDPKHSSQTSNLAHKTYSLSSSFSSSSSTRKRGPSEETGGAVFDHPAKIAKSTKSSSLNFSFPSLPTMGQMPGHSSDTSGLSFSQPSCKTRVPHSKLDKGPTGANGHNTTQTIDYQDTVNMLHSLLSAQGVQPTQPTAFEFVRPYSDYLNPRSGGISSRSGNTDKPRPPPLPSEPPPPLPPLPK

Another experiment concerns the target CDK1B (Homo sapiens, UniProt P06493).
Another experiment addresses CDK7HMAT1 (Homo sapiens, UniProt P50613). To be noted: 10 µM.
A further experiment addresses CDK6/D3 (Homo sapiens, UniProt Q00534). The experiment in a line: ADP Glo kinase assay, CDK6/D3. It counts as biochemical. To be noted: CDK6D3; for remaining activity at 10 µM: compound at 10 μM, read-out: residual enzymatic activity (%) at 10 μM; for remaining activity at 1 µM: compound at 1 μM (values marked *), read-out: residual enzymatic activity (%) at 1 μM*.
A further experiment has as its system U937. The experiment in a line: Proliferation assay (resazurin/MTT), U937. To be noted: Homo sapiens, U-937, read-out: 72 h Growth inhibition GI50, U937 cells. Type of experiment: cell-based.
A further experiment concerns the target CDK4/D1 (Homo sapiens, UniProt P11802). The experiment in a line: ADP Glo kinase assay, CDK4/D1. It counts as biochemical. The conditions noted are these: CDK4D1; for remaining activity at 10 µM: compound at 10 μM, read-out: residual enzymatic activity (%) at 10 μM; for remaining activity at 1 µM: compound at 1 μM (values marked *), read-out: residual enzymatic activity (%) at 1 μM*.

In another experiment the test system is MV-4-11. The experiment in a line: Proliferation assay (resazurin/MTT), MV-4-11. Type of experiment: cell-based. The conditions noted are these: Homo sapiens, MV4-11, read-out: 72 h Growth inhibition GI50, MV-4-11 cells. (Resazurin is reduced to fluorescent resorufin, in cell work by metabolically active cells.)
A further experiment addresses CDK2E1 (Homo sapiens, UniProt P24941). The conditions noted are these: 1 µM.

Chain of CDK6/D3 (Q00534 whole entry, species assumed): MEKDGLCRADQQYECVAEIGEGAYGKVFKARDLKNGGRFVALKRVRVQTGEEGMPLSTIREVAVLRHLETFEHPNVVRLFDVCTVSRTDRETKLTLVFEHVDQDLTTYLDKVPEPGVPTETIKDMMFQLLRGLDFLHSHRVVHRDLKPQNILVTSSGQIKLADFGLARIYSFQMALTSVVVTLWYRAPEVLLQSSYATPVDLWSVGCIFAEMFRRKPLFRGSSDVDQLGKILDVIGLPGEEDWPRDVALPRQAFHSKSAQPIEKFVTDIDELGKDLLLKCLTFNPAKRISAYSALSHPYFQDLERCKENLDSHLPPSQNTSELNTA
Chain of CDK6/D3 (P30281 whole entry partner, species assumed): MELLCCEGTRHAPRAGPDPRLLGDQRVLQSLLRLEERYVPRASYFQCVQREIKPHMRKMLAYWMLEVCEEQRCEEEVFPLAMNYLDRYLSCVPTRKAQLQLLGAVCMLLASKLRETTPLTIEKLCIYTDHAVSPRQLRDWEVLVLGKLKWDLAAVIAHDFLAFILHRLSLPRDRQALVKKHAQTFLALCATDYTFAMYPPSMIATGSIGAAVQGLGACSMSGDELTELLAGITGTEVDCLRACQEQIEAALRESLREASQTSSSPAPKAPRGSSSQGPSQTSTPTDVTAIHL
Chain of CDK4/D1 (P11802 whole entry, species assumed): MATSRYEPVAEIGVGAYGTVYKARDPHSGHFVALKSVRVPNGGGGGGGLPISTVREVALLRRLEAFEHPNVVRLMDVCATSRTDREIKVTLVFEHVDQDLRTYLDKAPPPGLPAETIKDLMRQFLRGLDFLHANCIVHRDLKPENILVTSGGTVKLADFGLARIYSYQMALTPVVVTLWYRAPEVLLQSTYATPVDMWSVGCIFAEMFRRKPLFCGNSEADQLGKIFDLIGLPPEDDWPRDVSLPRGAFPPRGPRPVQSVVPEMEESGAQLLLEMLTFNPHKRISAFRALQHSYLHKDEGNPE
Chain of CDK4/D1 (P24385 whole entry partner, species assumed): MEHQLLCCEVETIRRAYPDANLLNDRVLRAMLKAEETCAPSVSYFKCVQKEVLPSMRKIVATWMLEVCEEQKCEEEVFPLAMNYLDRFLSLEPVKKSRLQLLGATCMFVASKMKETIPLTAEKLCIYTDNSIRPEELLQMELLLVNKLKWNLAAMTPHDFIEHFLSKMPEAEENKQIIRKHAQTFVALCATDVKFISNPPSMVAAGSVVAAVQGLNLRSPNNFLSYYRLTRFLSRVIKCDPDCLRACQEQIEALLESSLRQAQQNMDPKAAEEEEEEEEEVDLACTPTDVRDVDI
Chain of CDK1B (P06493 whole entry): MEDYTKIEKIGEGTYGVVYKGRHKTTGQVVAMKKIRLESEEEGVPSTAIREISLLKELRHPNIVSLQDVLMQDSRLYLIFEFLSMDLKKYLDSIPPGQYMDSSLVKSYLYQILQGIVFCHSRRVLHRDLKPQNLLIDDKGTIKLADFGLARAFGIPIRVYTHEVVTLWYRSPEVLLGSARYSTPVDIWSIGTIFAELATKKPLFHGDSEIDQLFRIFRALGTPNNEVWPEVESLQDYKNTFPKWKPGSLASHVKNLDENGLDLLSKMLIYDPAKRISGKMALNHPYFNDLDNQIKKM
Chain of CDK1B (P14635 whole entry partner): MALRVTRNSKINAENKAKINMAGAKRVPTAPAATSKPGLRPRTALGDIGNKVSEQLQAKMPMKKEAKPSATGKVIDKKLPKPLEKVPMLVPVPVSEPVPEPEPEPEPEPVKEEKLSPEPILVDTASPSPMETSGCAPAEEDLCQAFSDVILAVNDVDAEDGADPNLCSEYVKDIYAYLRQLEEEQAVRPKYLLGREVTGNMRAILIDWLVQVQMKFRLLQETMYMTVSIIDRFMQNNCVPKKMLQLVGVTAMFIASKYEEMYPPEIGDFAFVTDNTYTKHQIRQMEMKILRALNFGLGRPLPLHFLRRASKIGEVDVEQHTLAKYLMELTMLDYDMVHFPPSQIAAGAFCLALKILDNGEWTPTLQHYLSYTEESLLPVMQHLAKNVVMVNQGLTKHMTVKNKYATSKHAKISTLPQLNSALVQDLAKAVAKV
Chain of CDK7HMAT1 (P50613 whole entry): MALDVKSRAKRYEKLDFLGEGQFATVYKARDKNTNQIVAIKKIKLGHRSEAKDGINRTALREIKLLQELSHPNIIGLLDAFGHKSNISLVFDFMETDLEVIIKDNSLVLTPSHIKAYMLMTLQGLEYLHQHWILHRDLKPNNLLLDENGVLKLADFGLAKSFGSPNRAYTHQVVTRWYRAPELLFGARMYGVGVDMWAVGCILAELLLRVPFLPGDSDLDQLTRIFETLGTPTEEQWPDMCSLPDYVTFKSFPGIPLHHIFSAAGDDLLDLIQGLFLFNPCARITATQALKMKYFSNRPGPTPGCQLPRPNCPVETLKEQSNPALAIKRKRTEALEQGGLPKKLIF
Chain of CDK7HMAT1 (P51946 whole entry partner): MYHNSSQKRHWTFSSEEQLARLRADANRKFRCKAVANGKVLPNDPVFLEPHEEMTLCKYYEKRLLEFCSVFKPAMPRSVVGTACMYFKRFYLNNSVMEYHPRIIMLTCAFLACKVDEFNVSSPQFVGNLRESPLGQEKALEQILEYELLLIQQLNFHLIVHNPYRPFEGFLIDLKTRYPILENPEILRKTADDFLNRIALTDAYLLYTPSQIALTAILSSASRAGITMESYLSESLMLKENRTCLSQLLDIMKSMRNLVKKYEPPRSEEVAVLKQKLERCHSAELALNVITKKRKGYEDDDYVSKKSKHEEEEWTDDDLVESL
Chain of CDK7HMAT1 (P51948 whole entry partner): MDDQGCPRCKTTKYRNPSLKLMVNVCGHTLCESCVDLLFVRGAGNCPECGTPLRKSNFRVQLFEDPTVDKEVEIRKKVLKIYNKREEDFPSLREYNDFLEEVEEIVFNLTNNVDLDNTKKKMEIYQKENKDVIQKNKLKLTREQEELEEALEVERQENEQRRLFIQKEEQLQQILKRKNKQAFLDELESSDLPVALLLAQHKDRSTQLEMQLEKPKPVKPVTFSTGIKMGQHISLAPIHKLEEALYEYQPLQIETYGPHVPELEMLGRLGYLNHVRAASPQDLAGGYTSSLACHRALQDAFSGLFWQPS
Method for CDK6/D3: Inhibition of FLT3(WT), FLT3(ITD) and FLT3(D835Y) and CDKs were determined using ADP Glo Kinase assays (Promega Corporation, Madison, WI, USA). […] Similarly, kinase reaction for CDK4/D1 and CDK6/D3 was performed with reaction buffer (40 nM Tris base pH 7.5, 20 mM MgCl2, 0.4 mM DTT), 0.1 mg/ml BSA and RB-CTF substrate (retinoblastoma protein1 C-terminal fraction). For CDK9/CyclinT1, the kinase reaction was performed with the standard assay buffer and Kinase Dilution Buffer and RBER-IRStide substrate. Half-maximal inhibition (IC50) values were calculated using a 4-parameter logistic non-linear regression model with Graphpad prism (Version 6.0). Apparent inhibition constants (Ki) values were calculated from Km (ATP) and IC50 values for the respective kinases.

With `CC(=O)N1CCN(c2ccc(Nc3nccc(-c4cnc5ccc(-c6cccnc6)cn45)n3)nc2)CC1` [Cmpd 15, 1-(4-(6-((4-(6-(Pyridin-3-yl)imidazo[1,2-a]pyridin-3-yl)pyrimidin-2-yl)amino)pyridin-3-yl)piperazin-1-yl)ethan-1-one], the Ki at CDK9/CyclinT1 (apparent Ki calculated from Km (ATP) and IC50, read-out: CDK inhibition Ki) is 680 nM. Besides, the results for the activity on CDK1B (10 µM), at CDK7HMAT1 and on CDK2E1 were 64%, 65% and 88%, respectively. Moreover, the values for the remaining activity at 10 µM at CDK6/D3 and on CDK4/D1 were 91% and 77%, respectively. The GI50 in the experiment on U937 came out at 1480 nM; with MV-4-11, 5 nM.
For `CS(=O)(=O)N1CCN(c2ccc(Nc3nccc(-c4cnc5ccc(-c6ccccc6)cn45)n3)nc2)CC1` [Cmpd 54, N-(5-(4-(Methylsulfonyl)piperazin-1-yl)pyridin-2-yl)-4-(6-phenylimidazo[1,2-a]pyridin-3-yl)pyrimidin-2-amine], on CDK9/CyclinT1, the remaining activity at 1 µM was 52%. For the same compound, the GI50 is 4330 nM in the experiment with U937 and 9 nM in the experiment with MV-4-11.
With `CC(=O)N1CCN(c2ccc(Nc3ncc(C)c(-c4cnc5ccccn45)n3)nc2)CC1` [Cmpd 44, 1-(4-(6-((4-(Imidazo[1,2-a]pyridin-3-yl)-5-methylpyrimidin-2-yl)amino)pyridin-3-yl)piperazin-1-yl)ethan-1-one], the remaining activity at 1 µM was 93% at CDK9/CyclinT1, 68% on CDK6/D3 and 63% on CDK4/D1. The activity at CDK1B (1 µM) was 91%; on CDK2E1, 66%. In addition, the GI50 in the experiment with U937 is more than 10000 nM; with MV-4-11 it was 387 nM.
For `CS(=O)(=O)N1CCN(c2ccc(Nc3nccc(-c4cnc5ccccn45)n3)nc2)CC1` [Cmpd 48, 4-(Imidazo[1,2-a]pyridin-3-yl)-N-(5-(4-(methylsulfonyl)piperazin-1-yl)pyridin-2-yl)pyrimidin-2-amine], the remaining activity at 1 µM on CDK9/CyclinT1 was 43%; on CDK6/D3 it was 71%; on CDK4/D1, 76%. Moreover, the figures for the activity at CDK1B (1 µM) and at CDK2E1 were 90% and 73%, respectively. Further, the GI50 in the experiment on U937 turned out to be 1880 nM; in the experiment with MV-4-11 it was 48 nM.
Consider `CC(=O)N1CCN(c2ccc(Nc3nccc(-c4cnc5ccc(-c6cnc(N)nc6)cn45)n3)nc2)CC1` [Cmpd 18, 1-(4-(6-((4-(6-(2-Aminopyrimidin-5-yl)imidazo[1,2-a]pyridin-3-yl)pyrimidin-2-yl)amino)pyridin-3-yl)piperazin-1-yl)ethan-1-one], for which the values for the activity at CDK1B (10 µM), at CDK7HMAT1 and on CDK2E1 were 69%, 99% and 97%, respectively. Further, the remaining activity at 10 µM at CDK6/D3 stood at 100%; on CDK4/D1, 48%. Moreover, the results for the GI50 in the experiment on U937 and in the experiment with MV-4-11 were 8700 nM and 23 nM, respectively.
As to `CC(=O)N1CCN(c2ccc(Nc3nccc(-c4cnc5ccc(-c6cc7ccccc7n6C)cn45)n3)nc2)CC1` [Cmpd 39, 1-(4-(6-((4-(6-(1-Methyl-1H-indol-2-yl)imidazo[1,2-a]pyridin-3-yl)pyrimidin-2-yl)amino)pyridin-3-yl)piperazin-1-yl)ethan-1-one], the remaining activity at 1 µM was found to be 69% on CDK9/CyclinT1, 85% on CDK6/D3 and 95% at CDK4/D1. For the same compound, the activity came to 101% at CDK1B (1 µM) and 92% at CDK2E1. Besides, the GI50 in the experiment on U937 was more than 10000 nM; with MV-4-11, 38 nM.
Consider `CN1CCN(c2ccc(Nc3nccc(-c4cnc5ccc(-c6ccccc6)cn45)n3)nc2)CC1` [Cmpd 46, N-(5-(4-Methylpiperazin-1-yl)pyridin-2-yl)-4-(6-phenylimidazo[1,2-a]pyridin-3-yl)pyrimidin-2-amine], for which the remaining activity at 1 µM on CDK6/D3 worked out at 86%; at CDK4/D1 it was 63%. In addition, the GI50 was determined as 2400 nM with U937 and 7 nM in the experiment with MV-4-11.
